Consider two molecules from patent US20070197619A1, “Ion Channel Modulators” (priority 2004, published 2007).

The subject of this assay is calcium channel (e.g., L-type, N-type, etc.). As to the kind of experiment: HEK assay, whole-cell patch clamp of transiently transfected HEK-293T/17 cells. Type of assay: cell-based. Conditions: whole-cell voltage clamp, holding potential −100 mV. How it is done: HEK-293T/17 cells are transiently transfected in a similar manner as described in FuGENE 6 Package Insert Version 7, April 2002, Roche Applied Science, Indianapolis, Ind. The cells are plated at 2.5×10^5 cells in 2 mL in a 6-well plate in incubator for one night and achieve a 30˜40% confluence. In a small sterile tube, add sufficient serum-free medium as diluent for FuGENE Transfection Reagent (Roche Applied Science, Indianapolis, Ind.), to a total volume of 100 μL. Add 3 μL of FuGENE 6 Reagent directly into this medium. The mixture is tapped gently to mix. 2 μg of DNA solution (0.8-2.0 μg/μL) is added to the prediluted FuGENE 6 Reagent from above. The DNA/Fugene 6 mixture is gently pipeted to mix the contents and incubated for about 15 minutes at room temperature. The complex mixture is then added to the HEK-293T/17 cells, distributing it around the well, and swirled to ensure even dispersal. The cells are returned to the incubator for 24 hrs. The transfected cells are then replated at density 2.5×10^5 in a 35 mm dish with 5 glass coverslips and grow in low serum (1%) media for 24 hrs. Coverslips with isolated cells are then transferred into chamber and calcium channel (e.g., L-type, N-type, etc.) current or other currents for counter screening are recorded from the transiently transfected HEK-293T/17 cells. […]

Regarding `CN(Cc1nc(CNc2ccc(F)cc2)cn1-c1ccc(Cl)cc1)c1ccc(F)cc1` [Compound 5], the IC50 (as a rule, the concentration at which inhibition is half-maximal) worked out at 135 nM.

Turning to `CN(Cc1nc(CN2CCCC2)cn1-c1ccc(Cl)cc1)c1ccc(F)cc1` [Compound 6], the IC50 amounted to 2690 nM.
